Reference: patent US20230212121A1 (DAEGU-GYEONGBUK MEDICAL INNOVATION FOUNDATION, priority 2020, published 2023)

Assays:
Type in all cases: cell-based
[1] = target: T1, serotonin transporter (SERT) (Homo sapiens, UniProt P31645); assay: Serotonin reuptake inhibition, [3H]-5-HT, HEK-293 cells transfected with 5-HT transporter cDNA; settings: for Triple reuptake inhibition (Ratio %) SERT: compound 1 μM, [3H]-5-HT, relative to control without compound = 100%, lower value = more inhibition
T1 construct: expressed in transfected cells; host or cells: HEK-293
T1 sequence (P31645 whole entry, species assumed): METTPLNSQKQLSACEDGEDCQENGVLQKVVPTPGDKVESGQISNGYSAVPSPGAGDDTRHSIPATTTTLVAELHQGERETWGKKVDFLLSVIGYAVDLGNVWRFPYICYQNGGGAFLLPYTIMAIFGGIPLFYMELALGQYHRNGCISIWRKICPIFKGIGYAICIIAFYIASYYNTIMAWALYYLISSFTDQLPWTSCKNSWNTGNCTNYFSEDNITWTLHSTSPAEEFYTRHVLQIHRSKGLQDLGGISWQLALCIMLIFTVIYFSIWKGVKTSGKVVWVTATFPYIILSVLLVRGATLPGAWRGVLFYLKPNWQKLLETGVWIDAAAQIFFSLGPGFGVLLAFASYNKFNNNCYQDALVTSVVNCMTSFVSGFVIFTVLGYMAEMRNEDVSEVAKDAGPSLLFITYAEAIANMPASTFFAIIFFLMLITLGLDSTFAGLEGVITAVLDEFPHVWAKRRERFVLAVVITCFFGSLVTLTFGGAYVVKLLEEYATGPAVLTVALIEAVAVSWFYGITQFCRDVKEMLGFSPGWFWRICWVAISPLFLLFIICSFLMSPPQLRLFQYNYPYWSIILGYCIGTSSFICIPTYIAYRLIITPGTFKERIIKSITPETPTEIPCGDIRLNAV
Summary of the method: (§1)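 HEK-293 cells transfected with SERT or NET cDNA were preincubated with compounds in uptake buffer for 15 min at 37 °C, then given [3H]-5-HT or [3H]-NE for 5 min at 37 °C. After ice-cold washes and 1% SDS lysis, retained radioactivity was expressed relative to the untreated control (100%). Screening was at 1 μM; IC50 came from six concentrations (1 nM–1 μM).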

[2] = target: T2, norepinephrine transporter (NET) (Homo sapiens, UniProt P23975); assay: Norepinephrine reuptake inhibition, [3H]-NE, HEK-293 cells transfected with NE transporter cDNA; settings: compound 1 μM; [3H]-NE; relative to control without compound = 100%; lower value = more inhibition
T2 construct: expressed in transfected cells; host or cells: HEK-293
T2 sequence (P23975 whole entry, species assumed): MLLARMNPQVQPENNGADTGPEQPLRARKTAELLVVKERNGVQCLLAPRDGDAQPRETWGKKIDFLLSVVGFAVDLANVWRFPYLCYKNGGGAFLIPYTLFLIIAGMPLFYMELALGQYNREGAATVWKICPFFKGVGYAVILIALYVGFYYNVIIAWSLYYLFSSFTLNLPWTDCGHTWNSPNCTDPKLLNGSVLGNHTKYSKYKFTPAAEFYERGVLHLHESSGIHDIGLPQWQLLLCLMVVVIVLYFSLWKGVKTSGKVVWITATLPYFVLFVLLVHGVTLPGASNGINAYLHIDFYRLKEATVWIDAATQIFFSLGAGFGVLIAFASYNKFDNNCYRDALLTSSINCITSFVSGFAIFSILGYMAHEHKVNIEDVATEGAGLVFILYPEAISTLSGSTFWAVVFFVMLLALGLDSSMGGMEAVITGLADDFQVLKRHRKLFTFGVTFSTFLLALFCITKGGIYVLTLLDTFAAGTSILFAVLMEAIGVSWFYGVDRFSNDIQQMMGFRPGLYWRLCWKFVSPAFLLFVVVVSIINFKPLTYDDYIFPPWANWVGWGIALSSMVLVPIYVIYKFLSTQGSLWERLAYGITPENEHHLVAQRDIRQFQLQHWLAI
Summary of the method: as §1

[3] = target: T3, dopamine transporter (DAT) (Homo sapiens, UniProt Q01959); assay: Dopamine reuptake inhibition, [3H]-DA, HEK-293 cells transfected with dopamine transporter cDNA; settings: compound 1 μM; 20-30 nM [3H]-DA; relative to control without compound = 100%; lower value = more inhibition
T3 construct: expressed in transfected cells; host or cells: HEK-293
T3 sequence (Q01959 whole entry, species assumed): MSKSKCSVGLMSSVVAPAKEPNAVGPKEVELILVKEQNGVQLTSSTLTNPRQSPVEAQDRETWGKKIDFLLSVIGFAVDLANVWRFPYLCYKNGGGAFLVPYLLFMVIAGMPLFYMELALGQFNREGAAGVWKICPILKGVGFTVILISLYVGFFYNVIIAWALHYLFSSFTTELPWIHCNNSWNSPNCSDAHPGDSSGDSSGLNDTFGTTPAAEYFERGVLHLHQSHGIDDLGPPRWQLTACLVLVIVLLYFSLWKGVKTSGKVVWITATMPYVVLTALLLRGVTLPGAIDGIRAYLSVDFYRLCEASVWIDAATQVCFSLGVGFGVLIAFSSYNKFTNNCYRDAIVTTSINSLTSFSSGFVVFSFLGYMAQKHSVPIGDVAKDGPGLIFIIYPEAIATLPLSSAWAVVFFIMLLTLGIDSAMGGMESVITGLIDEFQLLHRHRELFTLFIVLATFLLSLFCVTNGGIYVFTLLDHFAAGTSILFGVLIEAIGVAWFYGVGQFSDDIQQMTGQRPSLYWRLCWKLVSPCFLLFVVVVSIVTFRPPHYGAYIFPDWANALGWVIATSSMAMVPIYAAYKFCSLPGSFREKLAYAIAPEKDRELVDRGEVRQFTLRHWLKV
Summary of the method: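 Transfected cells were preincubated with compound (1 μM screen) for 15 min at 37 °C, then given 20-30 nM tracer for 5 min at 37 °C, washed ice-cold and lysed in 1% SDS for radioactivity counting. Uptake was expressed as % of untreated control, and IC50 came from six concentrations, 1 nM to 1 μM.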

Triple reuptake inhibition (Ratio %) SERT [1] [%]	Triple reuptake inhibition (Ratio %) NET [2] [%]	Triple reuptake inhibition (Ratio %) DAT [3] [%]	IC50 ([1]; concentration at which Ratio % is 50%, 6 concentrations 1 nM to 1 μM, read-out: Triple reuptake inhibition (IC50, μM) SERT) [µM]	Compound
56.73	45.04	89.88		O=S(=O)(NCCCN1CCC(c2ccccc2)CC1)c1ccc2ccccc2n1 [Example 65, N-(3-(4-phenylpiperidin-1-yl)propyl)quinolin sulfonamide]
49.64	87.27	83.08		O=S(=O)(NCCCN1CCN(Cc2ccccc2)CC1)c1cccc2ccccc12 [Example 67]
45.16	87.27	86.5		O=S(=O)(NCCCN1CCN(c2ccc(Cl)cc2)CC1)c1ccc2ccccc2c1 [Example 70, N-(3-(4-(4-chlorophenyl)piperazin-1-yl)propyl)naphthalen-2-sulfonamide]
47.19	64.45	68.53		O=S(=O)(NCCCN1CCN(c2ccc(Cl)cc2)CC1)c1cccc2ccccc12 [Example 71, N-(3-(4-(4-chlorophenyl)piperazin-1-yl)propyl)naphthalen-1-sulfonamide]
47.19	64.45	68.53		O=S(=O)(NCCCN1CCN(c2ccc(Cl)cc2)CC1)c1ccc(-c2ccccc2)cc1 [Example 72, N-(3-(4-(4-chlorophenyl)piperazin-1-yl)propyl)-[1,1′-biphenyl]-4-sulfonamide]
47.19	64.45	68.53	0.102	O=S(=O)(NCCCN1CCN(c2ccc(Cl)cc2)CC1)c1ccc2ccccc2n1 [Example 73, N-(3-(4-(4-chlorophenyl)piperazin-1-yl)propyl)quinolin-2-sulfonamide]
61.48	44.79	76.23		O=S(=O)(NCCCN1CCC(CCCc2ccccc2)CC1)c1ccc(-c2ccc(F)cc2)cc1 [Example 74, 4′-fluoro-N-(3-(4-(3-phenylpropyl)piperidin-1-yl)propyl)-[1,1′-biphenyl]-4-sulfonamide]
61.48	44.79	76.23		O=S(=O)(NCCCN1CCC(CCCc2ccccc2)CC1)c1ccc(-c2ccccc2)cc1 [Example 75, N-(3-(4-(3-phenylpropyl)piperidin-1-yl)propyl)-[1,1′-biphenyl]-4-sulfonamide]
44.91	44.79	19.97		O=S(=O)(NCCCN1CCN(CCCc2ccccc2)CC1)c1ccc(-c2ccccc2)cc1 [Example 76, N-(3-(4-(3-phenylpropyl)piperazin-1-yl)propyl)-[1,1′-biphenyl]-4-sulfonamide]
32.90	44.79	25.52		O=S(=O)(NCCCCN1CCN(CCCc2ccccc2)CC1)c1ccc(-c2ccccc2)cc1 [Example 78, N-(4-(4-(3-phenylpropyl)piperazin-1-yl)butyl)-[1,1′-biphenyl]-4-sulfonamide]
21.60	30.25	20.60		O=S(=O)(NCCCCN1CCC(CCCc2ccccc2)CC1)c1ccc(-c2ccccc2)cc1 [Example 79, N-(4-(4-(3-phenylpropyl)piperidin-1-yl)butyl)-[1,1′-biphenyl]-4-sulfonamide]

Compound	Triple reuptake inhibition (Ratio %) SERT [1] [%]	Triple reuptake inhibition (Ratio %) NET [2] [%]	Triple reuptake inhibition (Ratio %) DAT [3] [%]	IC50 ([1]; concentration at which Ratio % is 50%, 6 concentrations 1 nM to 1 μM, read-out: Triple reuptake inhibition (IC50, μM) SERT) [µM]
O=S(=O)(NCCCCN1CCC(Cc2ccccc2)CC1)c1ccc(-c2ccccc2)cc1 [Example 77, N-(4-(4-benzylpiperidin-1-yl)butyl)-[1,1′-biphenyl]-4-sulfonamide]	40.45	44.79	25.71	
N-(3-(4-benzylpiperidin-1-yl)propyl)-4-butoxybenzenesulfineamide [Example 19]	67.86	64.78	57.52	
